Test [1] relates to ULK kinase substrate ATG13 (phospho-Serine 318 ATG13) in A549 cells. The test can be described thus: pATG13 ELISA in mutant KRas A549 cells in combination with trametinib. The format is cell-based. Particulars: A549 (KRAS mutant) human lung cancer cells, with 250 nM trametinib, overnight. The protocol:
(§1) A549 (KRAS mutant) human lung cancer cells (6,000 cells/well) were added to a 384-well tissue-culture treated plate in 50 μL of pre-warmed DMEM medium supplemented with 10% characterized fetal bovine serum (Invitrogen, Carlsbad, Calif.), 100 units/mL penicillin G, and 100 μg/mL streptomycin and allowed to grow overnight at 37° C., 5% CO2, and 95% humidity. The following day, 10 μL of media containing trametinib or DMSO as a control was added to wells. The final concentration of trametinib in wells was 250 nM. A dose response of a test compound (0.6 μL per well) was added. DMSO (0.6 μL) was added to control wells. The plate was briefly shaken to mix wells and then incubated at 37° C. overnight. The next day, the media was aspirated and cells were washed with Dulbecco's Phosphate Buffered Saline (Gibco). Cells were lysed using MPER lysis buffer (Pierce, Rockford, Ill.) containing Halt Phosphatase and Protease Inhibitors (Pierce, Rockford, Ill.) and Phosphatase inhibitor cocktail 2 (Sigma, St. Louis, Mo.) at 4° C. for 10 minutes with shaking.
(§2) Cellular levels of phospho-Serine 318 ATG13 (pATG13) were measured via an ELISA method. Total ATG13 Antibody (Cell Signaling Cat #13273) was used to coat the wells. The plate was incubated at 4° C. overnight and washed with ELISA wash buffer (Biolegend Cat #421601). The wells were then blocked with assay diluent (Biolegend Cat #421203) for 1 hour at room temperature. Plate wells were washed with ELISA wash buffer. Cell lysate was added to wells and incubated at room temperature for 2 hours. Plate wells were washed with ELISA wash buffer. Biotinylated pS318-ATG13 antibody (Rockland Immunochemicals Cat #600-401-C49) was diluted in assay diluent and added to each well and incubated at room temperature for 1 hour. Plate wells were washed with ELISA wash buffer. Streptavidin linked to horseradish peroxidase (Thermo Fisher Cat #21140) was diluted in assay diluent and added to each well and incubated at room temperature for 1 hour. Plate wells were washed with ELISA wash buffer. High sensitivity TMB substrate (Biolegend Cat #421101) was added to each well and incubated at room temperature for 20 minutes. The reaction was stopped with 2N Sulfuric Acid. The plate was analyzed at on a plate reader measuring absorbance at 450 nm and 540 nm (background). Signal was calculated by first subtracting the background absorbance at 540 nm from the absorbance at 450 nm for each well. Next, the background corrected absorbance at 450 nm from blank wells was subtracted from test wells. Data was compared to control wells to determine % ATG13 phosphorylation. GraphPad Prism was used to calculate IC50 values.
Background: An ELISA detects its analyte on a solid surface through an enzyme-linked reagent.

The test system of test [2] is ULK kinase substrate ATG13 (phospho-Serine 318 ATG13) in MiaPaCa-2 cells. The test is described as follows: pATG13 ELISA in mutant KRas MiaPaCa-2 cells in combination with trametinib. The format is cell-based. The settings on record: MiaPaCa-2 human pancreatic cancer cells, with 250 nM trametinib, overnight. Here is the method: as §1, with “MiaPaCa-2” for “A549 (KRAS mutant)”, “pancreatic” for “lung”, “(10000” for “(6,000”, “G,” for “G, and”, “streptomycin, and 2.5% Horse Serum” for “streptomycin”
as §2

For test [3], the target named is T1, ULK1 kinase (Homo sapiens, UniProt O75385, E37A/K38A).
T1 construct: (residues 1-283; ID NO: 2); purchased Beryllium
T1 sequence (O75385 1-283 E37A/K38A): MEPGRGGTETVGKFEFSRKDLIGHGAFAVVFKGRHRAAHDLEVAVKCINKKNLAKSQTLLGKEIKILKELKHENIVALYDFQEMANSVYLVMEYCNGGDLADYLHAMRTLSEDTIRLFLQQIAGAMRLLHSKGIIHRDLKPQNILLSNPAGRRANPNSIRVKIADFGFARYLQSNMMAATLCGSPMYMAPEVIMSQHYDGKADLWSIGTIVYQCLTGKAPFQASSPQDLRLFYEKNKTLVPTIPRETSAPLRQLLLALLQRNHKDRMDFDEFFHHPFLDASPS
The test is described as follows: Biochemical assay for ULK1.3 (coupled pyruvate kinase/lactate dehydrogenase assay). Particulars: 0.1 nM ULK1 (residues 1-283), peptide substrate, 1 mM ATP. Here is the method: Activity of ULK1 kinase was determined spectroscopically using a coupled pyruvate kinase/lactate dehydrogenase assay that continuously monitors the ATP hydrolysis-dependent oxidation of NADH (e.g., Schindler et al. Science (2000) 289: 1938-1942). Assays were conducted in 384-well plates (100 uL final volume) using 0.1 nM ULK1 (from Beryllium), 0.075 mM peptide substrate (YANWLAASIYLDGKKK (SEQ ID NO: 5)), 1.5 units pyruvate kinase, 2.1 units lactate dehydrogenase, 1 mM phosphoenol pyruvate, 0.28 mM NADH and 1 mM ATP in assay buffer (100 mM Tris, pH 7.5, 15 mM MgCl2, 0.5 mM DTT, 0.004% (w/v) BSA, and 0.004% Triton X-100). Inhibition of ULK1 was measured by adding serial diluted test compound (final assay concentration of 1% DMSO). A decrease in absorption at 340 nm was monitored continuously for 6 hours at 30° C. on a multi-mode microplate reader (BioTek). The reaction rate was calculated using the 2-3 h time frame. The reaction rate at each concentration of compound was converted to percent inhibition using controls (i.e. reaction with no test compound and reaction with a known inhibitor) and IC50 values were calculated using software routines in Prism (GraphPad software).

The IC50 is the concentration that inhibits the measured activity by half.

Take `CC(C)c1cc(N2CCN(C)CC2)ccc1Nc1ncc(C(F)(F)F)c(NCCCNC(=O)C2CCC2)n1` [Example 3]: the figures for the IC50 in test [1], in test [2] and in test [3] were 100 to 300 nM, 10 to 100 nM and 1 to 25 nM, respectively.
On to `COc1cc(N2CCN(C)CC2)ccc1Nc1ncc(C(F)(F)F)c(NCCCNC(=O)C2CCC2)n1` [Example 4], for which the IC50 was 100 to 300 nM in test [1], 100 to 300 nM in test [2] and 25 to 100 nM in test [3].
On to `CC(C)c1cc(N2CCN(C)CC2)ccc1Nc1ncc(Br)c(NCCCNC(=O)C2CCC2)n1` [Example 8], for which the IC50 in test [1] lay in the range of 100 to 300 nM; in test [2] it was 100 to 300 nM; in test [3] it was 25 to 100 nM.
Consider `Cc1cc(N2CCN(C)CC2)ccc1Nc1ncc(C(F)(F)F)c(NCCCNC(=O)C(C)(C)C)n1` [Example 12], for which the figures for the IC50 in test [1] and in test [2] were 300 to 600 nM and 100 to 300 nM, respectively.
Take `CN1CCN(c2ccc(Nc3ncc(C(F)(F)F)c(NCCCNC(=O)C4CCC4)n3)c(C3CC3)c2)CC1` [Example 14]: the IC50 in test [1] lay in the range of 10 to 100 nM; in test [2], 10 to 100 nM; in test [3] it was 1 to 25 nM.

These data come from patent US11590134B2, “Aminopyrimidine amide autophagy inhibitors and methods of use thereof” (Deciphera Pharmaceuticals, LLC, priority 2019, dated 2023).
